Patent publication EP0478545B1, “1,2,4-BENZOTRIAZINE OXIDES AS RADIOSENSITIZERS AND SELECTIVE CYTOTOXIC AGENTS” (SRI INTERNATIONAL, priority 1989, dated 1991)
≈ marks a conversion by molar mass, not a printed value. Structures can show the parent of a compound that is named as a salt.

Legend:
[1] = Solubility
[2] = Octanol-water partition coefficient (method of Fujita et al.); conditions: pH 7.4
[3] = Determination of LD50; conditions: mouse, in vivo; Balb/c female mice 3-5 months of age; ip (or iv) injection in physiological saline
Experimental: LD50 is determined in BALB/c female mice (weighing 20-25 g) following intraperitoneal (ip) injection, unless the compound tested has low lipophilicity and is very soluble, wherein intravenous (iv) administration is used. LD50 values at 1, 2, 5, and 60 days are determined by administering graded doses of the drug dissolved in physiological saline immediately prior to injection.

[4] = physchem; conditions: pH 7.4
[5] = physchem

| Structure (SMILES) | solubility [1] [mM] | logP ([2]; octanol/water) | LD50 [3] [µmol/kg] | logP [2] | logP [4] | solubility [5] [mM] |
| --- | --- | --- | --- | --- | --- | --- |
| Nc1n[n+]([O-])c2cc([N+](=O)[O-])ccc2[n+]1[O-] [Compound 14, 7-nitro-3-amino-1,2,4-benzotriazine 1,4-dioxide] | 2 (≈ 446 µg/mL) | -0.97 | 1000 | – | – | – |
| CCN(CC)CCNc1n[n+]([O-])c2cc([N+](=O)[O-])ccc2[n+]1[O-] [Compound 21, 7-nitro-3-(2-N,N-diethylaminoethylamino)-1,2,4-benzotriazine 1,4-dioxide hydrochloride] | – | – | – | -0.2 | – | – |
| Nc1n[n+]([O-])c2ccccc2[n+]1[O-] [Compound 22] | – | – | 500 | – | -0.32 | 13.5 (≈ 2410 µg/mL) |
